Data from article PMC10590056, “Design and synthesis of cabotegravir derivatives bearing 1,2,3-triazole and evaluation of anti-liver cancer activity” (Frontiers in Pharmacology, 2023).
Where “and” joins values, the source holds several entries; their conditions need not be identical. Equal entries are not always repeated.

How the values were obtained:
Format in all cases: cell-based
[1] = test system: MCF-7 cells; assay: MTT assay for cell proliferation, MCF-7; design: key to Inhibitory rate / Inhibition rate: inhibition rate = 1 - mean A490 sample/mean A490 control (fraction); conditions: for Inhibition rate (16μM), 48 h, MCF-7: preliminary screening, MCF-7, 16 μM, mean±SD, unit not given
Description: (§1) HepG2, HeLa, MCF-7, and KYSE-30 cells were grown in a humidified incubator at 37°C with 5% CO2 in DMEM supplemented with 10% fetal bovine serum (FBS), […] streptomycin, and 100 U/mL penicillin.
(§2) When HepG2 cells reached 80% confluence, they were treated with 1 mL of trypsin and resuspended at a density of 10^5 cells/mL. Then, 100 μL of cell suspension was seeded into each well of a 96-well plate and incubated in a humidified atmosphere. The different concentrations of KJ-5 and KJ-12 (0, 1, 2, 4, 8, 16, and 32 μM) were added to each well, and the cells were further incubated for 48 h. Afterward, 20 μL of the MTT solution (5 mg/mL) was added to each well, and incubation was continued for another 4 h. The supernatant was discarded, and 200 μL of the DMSO solution was added to each well. The plate was shaken for 10 min in the dark. The absorbance values were measured at 490 nm using an enzyme-linked detector. The cell inhibition rate (%) was calculated using the following formula: (1-Mean A490 sample/Mean A490 control) × 100%.

[2] = test system: KYSE-30 cells; assay: MTT assay for cell proliferation, KYSE-30; design: key to Inhibitory rate: inhibition rate = 1 - mean A490 sample/mean A490 control (fraction); conditions: for Inhibitory rate: KYSE-30, given as fraction; for Inhibition rate (16μM), 48 h, KYSE-30: preliminary screening, KYSE-30, 16 μM, mean±SD, unit not given
Description: as §1, §2

[3] = test system: HeLa cells; assay: MTT assay for cell proliferation, HeLa; design: key to Inhibitory rate: inhibition rate = 1 - mean A490 sample/mean A490 control (fraction); conditions: Hela; for Inhibitory rate / ODtreated/ODcontrol: fraction, per experiment; for Inhibition rate (16μM), 48 h, Hela: preliminary screening, mean±SD, unit not given
Description: as §1, §2

[4] = test system: HepG2 cells; assay: MTT assay for cell proliferation and cytotoxicity, HepG2; design: key to Inhibitory rate: inhibition rate = 1 - mean A490 sample/mean A490 control (fraction); conditions: for IC50: HepG2, 48 h, MTT; for Inhibitory rate / ODtreated/ODcontrol: HepG2, fraction, per experiment; for Inhibition rate (16μM), 48 h, HepG2: preliminary screening, HepG2, 16 μM, mean±SD, unit not given
Description: as §1, §2

[5] = MCF-7, fraction, per experiment
[6] = given as fraction, second of three experiments
[7] = given as fraction, third of three experiments
[8] = KYSE-30, first of three experiments
[9] = KYSE-30, second of three experiments
[10] = KYSE-30, third of three experiments

For `CCc1ccccc1-n1cc(-c2cccc(NC(=O)c3cn4c(c(OC)c3=O)C(=O)N3[C@@H](C)CO[C@@H]3C4)c2)nn1` [KJ-4], the Inhibitory rate [1, 5] was 0.4901, the ODtreated/ODcontrol [1, 5] was 0.5099 and the Inhibitory rate [1, 6] was 0.5179. The Inhibition rate [1, 7] was 0.4059, the “Inhibition rate (16μM), 48 h, MCF-7” value [1] was 47.13±5.83 and the ODtreated/ODcontrol ([1]; second of three experiments) was 0.4821. For the same compound, the ODtreated/ODcontrol ([1]; third of three experiments) was 0.5941, the ODtreated/ODcontrol [2, 8] was 0.492 and the Inhibitory rate ([2]; first of three experiments) was 0.508. For the same compound, the Inhibitory rate ([2]; second of three experiments) was 0.3924, the Inhibitory rate ([2]; third of three experiments) was 0.4136 and the ODtreated/ODcontrol [2, 9] was 0.6076. The ODtreated/ODcontrol [2, 10] was 0.5864, the “Inhibition rate (16μM), 48 h, KYSE-30” value [2] was 43.8±6.15 and the Inhibitory rate [3] was 0.4763 and 0.5136 and 0.3886. For the same compound, the ODtreated/ODcontrol [3] was 0.5237 and 0.4864 and 0.6114, the “Inhibition rate (16μM), 48 h, Hela” value [3] was 45.95±6.42 and the IC50 [4] was 15.1 ± 0.28 µM. For the same compound, the Inhibitory rate [4] was 0.5128 and 0.512 and 0.5016, the ODtreated/ODcontrol [4] was 0.4872 and 0.488 and 0.4984 and the “Inhibition rate (16μM), 48 h, HepG2” value [4] was 50.88±0.63.

`COc1c2n(cc(C(=O)Nc3cccc(-c4cn(-c5cccc(F)c5)nn4)c3)c1=O)C[C@H]1OC[C@H](C)N1C2=O` [KJ-6] showed an Inhibitory rate [1, 5] of 0.5139, an ODtreated/ODcontrol [1, 5] of 0.4861 and an Inhibitory rate [1, 6] of 0.536. For the same compound, the Inhibition rate [1, 7] was 0.519, the “Inhibition rate (16μM), 48 h, MCF-7” value [1] was 52.3±1.16 and the ODtreated/ODcontrol ([1]; second of three experiments) was 0.464. It also gave an ODtreated/ODcontrol ([1]; third of three experiments) of 0.481, an ODtreated/ODcontrol [2, 8] of 0.3817 and an Inhibitory rate ([2]; first of three experiments) of 0.6183. It also gave an Inhibitory rate ([2]; second of three experiments) of 0.5213, an Inhibitory rate ([2]; third of three experiments) of 0.4998 and an ODtreated/ODcontrol [2, 9] of 0.4787. For the same compound, the ODtreated/ODcontrol [2, 10] was 0.5002, the “Inhibition rate (16μM), 48 h, KYSE-30” value [2] was 54.65±6.31 and the Inhibitory rate [3] was 0.6049 and 0.5572 and 0.5217. For the same compound, the ODtreated/ODcontrol [3] was 0.3951 and 0.4428 and 0.4783, the “Inhibition rate (16μM), 48 h, Hela” value [3] was 56.13±4.18 and the IC50 [4] was 7.63 ± 1.2 µM. The Inhibitory rate [4] was 0.6124 and 0.6058 and 0.5961, the ODtreated/ODcontrol [4] was 0.3876 and 0.3942 and 0.4039 and the “Inhibition rate (16μM), 48 h, HepG2” value [4] was 60.48±0.82.

With `COc1ccccc1-n1cc(-c2cccc(NC(=O)c3cn4c(c(OC)c3=O)C(=O)N3[C@@H](C)CO[C@@H]3C4)c2)nn1` [KJ-7] the Inhibitory rate [1, 5] was 0.4361, the ODtreated/ODcontrol [1, 5] was 0.5639 and the Inhibitory rate [1, 6] was 0.4406. For the same compound, the Inhibition rate [1, 7] was 0.3594, the “Inhibition rate (16μM), 48 h, MCF-7” value [1] was 41.2±4.56 and the ODtreated/ODcontrol ([1]; second of three experiments) was 0.5594. The ODtreated/ODcontrol ([1]; third of three experiments) was 0.6406, the ODtreated/ODcontrol [2, 8] was 0.5159 and the Inhibitory rate ([2]; first of three experiments) was 0.4841. The Inhibitory rate ([2]; second of three experiments) was 0.4213, the Inhibitory rate ([2]; third of three experiments) was 0.4377 and the ODtreated/ODcontrol [2, 9] was 0.5787. For the same compound, the ODtreated/ODcontrol [2, 10] was 0.5623, the “Inhibition rate (16μM), 48 h, KYSE-30” value [2] was 44.77±3.26 and the Inhibitory rate [3] was 0.3847 and 0.3789 and 0.3067. The ODtreated/ODcontrol [3] was 0.6153 and 0.6211 and 0.6933, the “Inhibition rate (16μM), 48 h, Hela” value [3] was 35.68±4.35 and the IC50 [4] was 21.7 ± 1.07 µM. For the same compound, the Inhibitory rate [4] was 0.4068 and 0.4092 and 0.416, the ODtreated/ODcontrol [4] was 0.5932 and 0.5908 and 0.584 and the “Inhibition rate (16μM), 48 h, HepG2” value [4] was 41.07±0.48.

`COc1c2n(cc(C(=O)Nc3cccc(-c4cn(-c5cccc(C(F)(F)F)c5)nn4)c3)c1=O)C[C@H]1OC[C@H](C)N1C2=O` [KJ-8] gave an Inhibitory rate [1, 5] of 0.6331, an ODtreated/ODcontrol [1, 5] of 0.3669 and an Inhibitory rate [1, 6] of 0.5745. For the same compound, the Inhibition rate [1, 7] was 0.558, the “Inhibition rate (16μM), 48 h, MCF-7” value [1] was 58.85±3.95 and the ODtreated/ODcontrol ([1]; second of three experiments) was 0.4255. For the same compound, the ODtreated/ODcontrol ([1]; third of three experiments) was 0.442, the ODtreated/ODcontrol [2, 8] was 0.3962 and the Inhibitory rate ([2]; first of three experiments) was 0.6038. For the same compound, the Inhibitory rate ([2]; second of three experiments) was 0.6049, the Inhibitory rate ([2]; third of three experiments) was 0.5814 and the ODtreated/ODcontrol [2, 9] was 0.3951. The ODtreated/ODcontrol [2, 10] was 0.4186, the “Inhibition rate (16μM), 48 h, KYSE-30” value [2] was 59.67±1.33 and the Inhibitory rate [3] was 0.6574 and 0.6919 and 0.6249. For the same compound, the ODtreated/ODcontrol [3] was 0.3426 and 0.3081 and 0.3751, the “Inhibition rate (16μM), 48 h, Hela” value [3] was 65.81±3.35 and the IC50 [4] was 9.41 ± 1.3 µM. For the same compound, the Inhibitory rate [4] was 0.6351 and 0.626 and 0.6586, the ODtreated/ODcontrol [4] was 0.3649 and 0.374 and 0.3414 and the “Inhibition rate (16μM), 48 h, HepG2” value [4] was 63.99±1.68.

`COc1c2n(cc(C(=O)Nc3cccc(-c4cn(-c5ccccc5OC(F)(F)F)nn4)c3)c1=O)C[C@H]1OC[C@H](C)N1C2=O` [KJ-9] gave an Inhibitory rate [1, 5] of 0.7135, an ODtreated/ODcontrol [1, 5] of 0.2865 and an Inhibitory rate [1, 6] of 0.7214. The Inhibition rate [1, 7] was 0.6147, the “Inhibition rate (16μM), 48 h, MCF-7” value [1] was 68.32±5.95 and the ODtreated/ODcontrol ([1]; second of three experiments) was 0.2786. For the same compound, the ODtreated/ODcontrol ([1]; third of three experiments) was 0.3853, the ODtreated/ODcontrol [2, 8] was 0.3517 and the Inhibitory rate ([2]; first of three experiments) was 0.6483. It also gave an Inhibitory rate ([2]; second of three experiments) of 0.6765, an Inhibitory rate ([2]; third of three experiments) of 0.5914 and an ODtreated/ODcontrol [2, 9] of 0.3235. For the same compound, the ODtreated/ODcontrol [2, 10] was 0.4086, the “Inhibition rate (16μM), 48 h, KYSE-30” value [2] was 63.87±4.34 and the Inhibitory rate [3] was 0.7654 and 0.7384 and 0.7732. The ODtreated/ODcontrol [3] was 0.2346 and 0.2616 and 0.2268, the “Inhibition rate (16μM), 48 h, Hela” value [3] was 75.9±1.83 and the IC50 [4] was 5.06 ± 0.06 µM. For the same compound, the Inhibitory rate [4] was 0.8207 and 0.8024 and 0.7986, the ODtreated/ODcontrol [4] was 0.1793 and 0.1976 and 0.2014 and the “Inhibition rate (16μM), 48 h, HepG2” value [4] was 80.72±1.18.
